Source: patent publication US20110098177A1, “METHODS AND COMPOSITIONS OF PLANT MICRONUTRIENTS” (NOVUS INTERNATIONAL INC., priority 2006, published 2011)

Experiments:
Format in all cases: in vivo
[1] = tested on: soybean plants (Asgrow 1102); test: ICP-MS micronutrient content of soybean trifoliates (Examples 11-12); set-up: Micronutrient content from ICP-MS analysis: Mn: unit not given here; settings: for Micronutrient content from ICP-MS analysis: Fe: in ppm (unit assumed)
Protocol: The following experiments were performed on soybean plants growing in open-field plots during the summer and fall of 2008 at two production fields in West Central Minnesota. […] Trial design was a randomized complete block with 4 replications. Each plot measured 10' by 30' and consisted of five 22'' rows. Although all five rows of each plot were treated, only the center three rows (25' in length) of each plot were machine harvested. The two fields selected for these studies had historical Iron Deficiency Chlorosis (IDC) issues. The two field sites were planted by farmers with elite Roundup Ready commodity type soybean varieties with IDC tolerance (Asgrow 1102, Monsanto Corp.). […] BIOX-M was applied at a rate of 1.12 kg Mn/ha. […] All V4 treatments were applied in 10 gallons per acre of water with a backpack sprayer with a hand boom designed to “band” apply product directly to the plant row. Three nozzles with ConeJet TXVS-2 tips were oriented on either side and over the top of each row. This maximized the applied product to the plant tissue itself and minimized application of product to the soil surface. […] The V6 treatments (where applicable) were applied in 20 gallons per acre of water to increase the suspension of the BIOX products. […] The harvested plants were dried, ground, and subjected to Inductively Coupled Plasma-Mass Spectrometry (ICP-MS) analysis to determine plant micronutrient content.

Tygress tomato plants [2] = test: Foliar nutrient concentration 2 weeks after treatment, greenhouse tomato (Examples 4-6); settings: Mn 1.0 lb/acre
Protocol: (§1) The following experiments were performed in a green house during the fall of 2008 and spring of 2009 at GCREC, Balm, University of Florida. Crop set-up, procedures and variables were as follows.
(§2) Transplants of Tygress' tomato plants were planted in 2-gallon pots filled with commercial planting medium with nutrient concentration of Fe, Zn, Mn, Cu being negligible and insufficient for crop growth. Irrigation and non-micronutrient fertilizer were provided daily through microsprinklers at recommended rates for tomato production in Florida. No pesticides were used. Treatments were as described in Tables 4, 5 and 6 below.
(§3) Treatments were applied at 5 WAT (weeks after transplanting) using a water volume of 200 mL/plant. A non-ionic surfactant was added. Foliar tissue analysis was performed at 3 and 7 WAT on the non-applied newest leaves. The concentrations of N, P, K, Mg, Ca, B, Zn, Mn, Fe, and Cu in the foliar tissue were determined from foliar analysis by a commercial laboratory at 2 weeks before treatment and again at 2 weeks after treatment.
(§4) Deionized water was used for foliar applications, and other nutrients were applied as appropriate under non-limiting conditions. Marketable fruit were collected three times during the growing season, starting at 10 WAT (5 weeks after the initial treatment). Tomato fruit was graded as extra-large, large and medium. Non-marketable fruit were harvested and number and weight recorded but not sized.
(§5) Experimental design was a randomized complete block design with 6 replications. Data were analyzed using a general linear model, and means were separated using an LSD test at the 5% significance level.

Tygress tomato plants [3] = test: Yields of tomato fruits, greenhouse (Examples 4-6)
Protocol: as §1, §2, §3, §4, §5

[4] = tested on: soybean plants (Asgrow 1102); test: Soybean seed protein and oil content (Examples 11-12); settings: in %
Protocol: (§6) The following experiments were performed on soybean plants growing in open-field plots during the summer and fall of 2008 at two production fields in West Central Minnesota. […] Trial design was a randomized complete block with 4 replications. Each plot measured 10' by 30' and consisted of five 22'' rows. Although all five rows of each plot were treated, only the center three rows (25' in length) of each plot were machine harvested. The two fields selected for these studies had historical Iron Deficiency Chlorosis (IDC) issues. The two field sites were planted by farmers with elite Roundup Ready commodity type soybean varieties with IDC tolerance (Asgrow 1102, Monsanto Corp.). […] BIOX-M was applied at a rate of 1.12 kg Mn/ha. […] All V4 treatments were applied in 10 gallons per acre of water with a backpack sprayer with a hand boom designed to “band” apply product directly to the plant row. Three nozzles with ConeJet TXVS-2 tips were oriented on either side and over the top of each row. This maximized the applied product to the plant tissue itself and minimized application of product to the soil surface. […] The V6 treatments (where applicable) were applied in 20 gallons per acre of water to increase the suspension of the BIOX products. Soybean seed was harvested after soybean maturity was reached (3 October at […], and 17 Oct. 2008 at Foxhome) and seed yields for each experimental treatment group were determined. In addition, seed samples from each treatment were dried to 13% moisture content, then analyzed for protein and oil content.

[5] = tested on: soybean plants (Asgrow 1102); test: Soybean seed yield (Examples 11-12)
Protocol: as §6

[6] = tested on: soybean plants (Asgrow 1102); test: Visual greenness ratings (1-5 scale) of soybean plants, open-field (Examples 11-12)
Protocol: The following experiments were performed on soybean plants growing in open-field plots during the summer and fall of 2008 at two production fields in West Central Minnesota. […] Trial design was a randomized complete block with 4 replications. Each plot measured 10' by 30' and consisted of five 22'' rows. Although all five rows of each plot were treated, only the center three rows (25' in length) of each plot were machine harvested. The two fields selected for these studies had historical Iron Deficiency Chlorosis (IDC) issues. The two field sites were planted by farmers with elite Roundup Ready commodity type soybean varieties with IDC tolerance (Asgrow 1102, Monsanto Corp.). […] BIOX-M was applied at a rate of 1.12 kg Mn/ha. […] All V4 treatments were applied in 10 gallons per acre of water with a backpack sprayer with a hand boom designed to “band” apply product directly to the plant row. Three nozzles with ConeJet TXVS-2 tips were oriented on either side and over the top of each row. This maximized the applied product to the plant tissue itself and minimized application of product to the soil surface. […] The V6 treatments (where applicable) were applied in 20 gallons per acre of water to increase the suspension of the BIOX products.

O=S(=O)([O-])[O-].[Mn+2] [BIOX-INM, manganese sulfate, reference compound]
Micronutrient content from ICP-MS analysis: Mn ([1]; 3.27 kg/ha, V4, Foxhome): 86.58
Micronutrient content from ICP-MS analysis: Fe ([1]; 3.27 kg/ha, V4, Foxhome): 87.35
Micronutrient content from ICP-MS analysis: Mn ([1]; 3.27 kg/ha, V4, Renville): 83.90
Micronutrient content from ICP-MS analysis: Fe ([1]; 3.27 kg/ha, V4, Renville): 101.17
B concentration in tomato leaves (Tygress tomato plants [2]; 2 weeks after Mn treatment): 25 ppm
Ca concentration in tomato leaves (Tygress tomato plants [2]; 2 weeks after Mn treatment): 0.6%
Cu concentration in tomato leaves (Tygress tomato plants [2]; 2 weeks after Mn treatment): 5 ppm
Fe concentration in tomato leaves (Tygress tomato plants [2]; 2 weeks after Mn treatment): 117 ppm
K concentration in tomato leaves (Tygress tomato plants [2]; 2 weeks after Mn treatment): 3.2%
Mg concentration in tomato leaves (Tygress tomato plants [2]; 2 weeks after Mn treatment): 0.3%
N concentration in tomato leaves (Tygress tomato plants [2]; 2 weeks after Mn treatment): 3.4%
P concentration in tomato leaves (Tygress tomato plants [2]; 2 weeks after Mn treatment): 0.6%
Zn concentration in tomato leaves (Tygress tomato plants [2]; 2 weeks after Mn treatment): 34 ppm
Foliar Mn concentration (Tygress tomato plants [2]; tomato leaves 2 weeks after Mn treatment): 80.9 a ppm
Marketable tomato yield compared with non-treated control (in words) (Tygress tomato plants [3]; BIOX-M at 1.23 lb/acre or more, BIOX-EDM at 2.0 lb/acre, Mn-sulfate at 1.0 lb/acre): significantly higher than the non-treated control
Marketable yield (Tygress tomato plants [3]; Mn 1.0 lb/acre, tomato fruits): 4.0 a lb/plant
Oil content (13% moisture) ([4]; 3.27 kg/ha, V4, Foxhome): 18.32
Protein content (13% moisture) ([4]; 3.27 kg/ha, V4, Foxhome): 32.63
Oil content (13% moisture) ([4]; 3.27 kg/ha, V4, Renville): 19.80
Protein content (13% moisture) ([4]; 3.27 kg/ha, V4, Renville): 32.36
Yield ([5]; 3.27 kg/ha, V4, Foxhome): 45.05 Bu/A
Yield ([5]; 3.27 kg/ha, V4, Renville): 27.13 Bu/A
Mean visual greenness scores (1-5) ([6]; 3.27 kg/ha, V4, Jul. 15, 2008 Rating, Foxhome): 3.0
Mean visual greenness scores (1-5) ([6]; 3.27 kg/ha, V4, Jul. 15, 2008 Rating, Renville): 2.4
Mean visual greenness scores (1-5) ([6]; 3.27 kg/ha, V4, Jul. 29, 2008 Rating, Foxhome): 1.5 A, B, C
Mean visual greenness scores (1-5) ([6]; 3.27 kg/ha, V4, Jul. 29, 2008 Rating, Renville): 1.0

EDDHA chelated iron [BIOX-EDDI, reference compound]
Micronutrient content from ICP-MS analysis: Mn ([1]; 2.23 kg/ha, V4, V6, Foxhome): 66.03
Micronutrient content from ICP-MS analysis: Fe ([1]; 2.23 kg/ha, V4, V6, Foxhome): 86.15
Micronutrient content from ICP-MS analysis: Mn ([1]; 2.23 kg/ha, V4, V6, Renville): 91.09
Micronutrient content from ICP-MS analysis: Fe ([1]; 2.23 kg/ha, V4, V6, Renville): 99.56
Micronutrient content from ICP-MS analysis: Mn ([1]; 2.23 kg/ha, V4, Foxhome): 91.22
Micronutrient content from ICP-MS analysis: Fe ([1]; 2.23 kg/ha, V4, Foxhome): 82.37
Micronutrient content from ICP-MS analysis: Mn ([1]; 2.23 kg/ha, V4, Renville): 86.45
Micronutrient content from ICP-MS analysis: Fe ([1]; 2.23 kg/ha, V4, Renville): 96.89
Oil content (13% moisture) ([4]; 2.23 kg/ha, V4, V6, Foxhome): 18.56
Protein content (13% moisture) ([4]; 2.23 kg/ha, V4, V6, Foxhome): 32.58
Oil content (13% moisture) ([4]; 2.23 kg/ha, V4, V6, Renville): 19.97
Protein content (13% moisture) ([4]; 2.23 kg/ha, V4, V6, Renville): 31.97
Oil content (13% moisture) ([4]; 2.23 kg/ha, V4, Foxhome): 18.41
Protein content (13% moisture) ([4]; 2.23 kg/ha, V4, Foxhome): 32.56
Oil content (13% moisture) ([4]; 2.23 kg/ha, V4, Renville): 20.22
Protein content (13% moisture) ([4]; 2.23 kg/ha, V4, Renville): 32.14
Yield ([5]; 2.23 kg/ha, V4, V6, Foxhome): 45.28 Bu/A
Yield ([5]; 2.23 kg/ha, V4, V6, Renville): 24.15 Bu/A
Yield ([5]; 2.23 kg/ha, V4, Foxhome): 38.98 Bu/A
Yield ([5]; 2.23 kg/ha, V4, Renville): 27.19 Bu/A
Mean visual greenness scores (1-5) ([6]; 2.23 kg/ha, V4, V6, Jul. 15, 2008 Rating, Foxhome): 2.1
Mean visual greenness scores (1-5) ([6]; 2.23 kg/ha, V4, V6, Jul. 15, 2008 Rating, Renville): 2.9
Mean visual greenness scores (1-5) ([6]; 2.23 kg/ha, V4, V6, Jul. 29, 2008 Rating, Foxhome): 1.0 C
Mean visual greenness scores (1-5) ([6]; 2.23 kg/ha, V4, V6, Jul. 29, 2008 Rating, Renville): 1.4
Mean visual greenness scores (1-5) ([6]; 2.23 kg/ha, V4, Jul. 15, 2008 Rating, Foxhome): 2.8
Mean visual greenness scores (1-5) ([6]; 2.23 kg/ha, V4, Jul. 15, 2008 Rating, Renville): 2.6
Mean visual greenness scores (1-5) ([6]; 2.23 kg/ha, V4, Jul. 29, 2008 Rating, Foxhome): 2.0 A
Mean visual greenness scores (1-5) ([6]; 2.23 kg/ha, V4, Jul. 29, 2008 Rating, Renville): 1.3
Greenness of soybean plants compared to control, statement ([6]; BIOX-EDDI applied at V4 only, Foxhome site, 29 July rating): not when applied at V4 only
